Data on 17 molecules can be found in PubChem BioAssay (NCI).

Test systems include SNB-75 CNS; IGROV1 ovarian; UACC-257 melanoma; K-562 leukemia; SF-295 CNS; HCT-15 colon; MDA-MB-231 breast; SNB-19 CNS; T-47D breast; MCF7 breast.
What all share (assay): NCI anticancer screen, dose series, 48 h

Each structure is given as a SMILES string.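 Following 48 hours of exposure in 96-well plates, responses at five concentrations were used to interpolate endpoints linearly. TGI is the concentration that stops growth completely.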 Some results are limits rather than exact numbers.

In the case of `Cc1ccc(Sc2ccccc2[N+](=O)[O-])cc1`, the TGI with SNB-75 CNS is 40.6 µM; in the assay with IGROV1 ovarian, more than 100 µM; in the assay with UACC-257 melanoma, 67.8 µM; in the assay with K-562 leukemia it was more than 100 µM; with SF-295 CNS, 70.9 µM; in the assay on HCT-15 colon it was 62.2 µM.
Take `COc1ccccc1N=Nc1c(O)c(S(=O)(=O)O)cc2cc(S(=O)(=O)O)ccc12`: the TGI with SNB-75 CNS, with MDA-MB-231 breast, in the assay with IGROV1 ovarian, in the assay on UACC-257 melanoma, with SNB-19 CNS and with K-562 leukemia was more than 100 µM throughout. Moreover, the TGI with T-47D breast, with SF-295 CNS and in the assay with HCT-15 colon was more than 100 µM each time.
For `CNc1ccc2ncccc2c1[N+](=O)[O-]`, the TGI in the assay on SNB-75 CNS, in the assay on IGROV1 ovarian, in the assay with UACC-257 melanoma, with SNB-19 CNS, in the assay with K-562 leukemia and in the assay on SF-295 CNS was more than 100 µM each time. For the same molecule, in the assay on HCT-15 colon, the TGI is more than 100 µM.
With `CCOC(=O)c1c(C)nc2c(c1-c1cn(-c3ccccc3)nc1-c1ccccc1)C(=O)c1ccccc1-2`, the TGI in the assay on SNB-75 CNS, with MDA-MB-231 breast, with IGROV1 ovarian, in the assay with UACC-257 melanoma, in the assay on SNB-19 CNS and in the assay with K-562 leukemia was more than 100 µM each time. Further, the TGI with T-47D breast, with SF-295 CNS and with HCT-15 colon was more than 100 µM each time.
`CCC(COC(=O)CC[C@@H](NC(=O)C(C)NC(=O)C(C)OC1C(O)C(CO)OC(OCc2ccccc2)C1NC(C)=O)C(N)=O)NC1c2ccccc2Nc2cccc([N+](=O)[O-])c21` (some centres undefined): the TGI with SNB-75 CNS, with IGROV1 ovarian, in the assay on UACC-257 melanoma, with SNB-19 CNS, in the assay with K-562 leukemia and in the assay with SF-295 CNS was more than 100 µM throughout. The TGI in the assay on HCT-15 colon was more than 100 µM.
Take `COC(=O)CCc1c(Cc2ccc[nH]2)[nH]c(C(=O)OCc2ccccc2)c1C`: the TGI in the assay with MDA-MB-231 breast is 28.9 µM; in the assay with IGROV1 ovarian it was 31.4 µM; in the assay on UACC-257 melanoma, 38.9 µM; in the assay on SNB-19 CNS it was 85.8 µM; in the assay with K-562 leukemia, 58.5 µM; with SF-295 CNS it was 53.3 µM. Moreover, the TGI in the assay with HCT-15 colon turned out to be 36.3 µM; in the assay on MCF7 breast, 35.7 µM.
Consider `O=[N+]([O-])c1ccc2oc(=Nc3ccccc3)c(Nc3ccccc3)nc2c1`, for which the TGI in the assay with SNB-75 CNS is 79.6 µM; in the assay on MDA-MB-231 breast, more than 100 µM; in the assay on IGROV1 ovarian, more than 100 µM; in the assay with UACC-257 melanoma, more than 100 µM; with SNB-19 CNS it was more than 100 µM; with K-562 leukemia it was more than 100 µM. Also, the TGI in the assay on T-47D breast, in the assay on SF-295 CNS and in the assay on HCT-15 colon was more than 100 µM throughout.
With `CN(C)CCNC(=O)c1cccc2cc3cc(O)ccc3nc12`, the TGI with SNB-75 CNS amounted to 6.31 µM; in the assay with IGROV1 ovarian, 4.43 µM; in the assay on UACC-257 melanoma it was 2.94 µM; with SNB-19 CNS, 3.53 µM; with K-562 leukemia, 11.8 µM; with SF-295 CNS, 3.4 µM. Moreover, the figures for the TGI with HCT-15 colon and with MCF7 breast were 6.53 µM and 6.47 µM, respectively.
Take `CC(C)OP(=O)(OC(C)C)C1=NN(c2ccc([N+](=O)[O-])cc2)C(P(=O)(OC(C)C)OC(C)C)=NN1c1ccc([N+](=O)[O-])cc1`: the TGI in the assay on IGROV1 ovarian, with SNB-19 CNS, with K-562 leukemia and with HCT-15 colon was more than 100 µM each time.
Regarding `CCCc1c(C(=O)OCC)[nH]c(-c2ccc(-c3[nH]c(C(=O)OCC)c(CCC)c3C(=O)OCC)s2)c1C(=O)OCC`, the TGI in the assay with SNB-75 CNS is 58 µM; in the assay on IGROV1 ovarian, more than 100 µM; in the assay with UACC-257 melanoma it was more than 100 µM; in the assay on SNB-19 CNS, more than 100 µM; in the assay with K-562 leukemia, more than 100 µM; in the assay on SF-295 CNS, more than 100 µM. In the assay with HCT-15 colon, this molecule showed a TGI of more than 100 µM.
Regarding `CC1(C)CC2(C)CC1CC2(O)c1ccccc1` (centres undefined), the TGI in the assay on SNB-75 CNS, in the assay on MDA-MB-231 breast, in the assay on IGROV1 ovarian, with UACC-257 melanoma, in the assay on SNB-19 CNS and in the assay with K-562 leukemia was more than 100 µM throughout. Further, the TGI in the assay with T-47D breast and in the assay with SF-295 CNS was more than 100 µM throughout.
Consider `CC(=O)NC(CCCCN)C(=O)NCc1ccccc1` (centres undefined), for which the TGI with SNB-75 CNS, in the assay on IGROV1 ovarian, with UACC-257 melanoma, in the assay on SNB-19 CNS, with K-562 leukemia and in the assay on SF-295 CNS was more than 100 µM throughout. Moreover, in the assay on HCT-15 colon, the TGI is more than 100 µM.
As for `COC(=O)CC(C(C(=O)OCc1ccccc1)C(C)O)N1C(=O)OC(c2ccccc2)C1c1ccccc1` (centres undefined), the TGI in the assay with IGROV1 ovarian, in the assay on UACC-257 melanoma, in the assay with SNB-19 CNS, with K-562 leukemia, with SF-295 CNS and with HCT-15 colon was more than 100 µM throughout.
As for `CC1(C)C2CCC3(OCCO3)C1C(O)C2` (centres undefined), the TGI with SNB-75 CNS, in the assay on IGROV1 ovarian, with UACC-257 melanoma, in the assay with SNB-19 CNS, with K-562 leukemia and with SF-295 CNS was more than 100 µM throughout. The molecule also showed a TGI in the assay on HCT-15 colon of more than 100 µM.
Take `N#C/C(=C\c1cccc(O)c1O)C(N)=O`: the TGI with SNB-75 CNS was 47.2 µM; with IGROV1 ovarian, more than 100 µM; in the assay on UACC-257 melanoma it was more than 100 µM; in the assay on SNB-19 CNS, more than 100 µM; in the assay on K-562 leukemia, more than 100 µM; with SF-295 CNS it was more than 100 µM. This molecule also returned a TGI with HCT-15 colon of more than 100 µM.
As for `COc1ccc2c(c1)OCCc1cn[nH]c1-2`, the TGI is more than 100 µM in the assay with SNB-75 CNS; 56.1 µM in the assay with IGROV1 ovarian; more than 100 µM with UACC-257 melanoma; more than 100 µM in the assay with SNB-19 CNS; more than 100 µM in the assay on K-562 leukemia; more than 100 µM in the assay with SF-295 CNS. Also, the TGI in the assay with HCT-15 colon and in the assay on MCF7 breast was more than 100 µM in each case.
Consider `CCSCN(C)c1nc(N(C)C)nc(N(C)C)n1`, for which the TGI with SNB-75 CNS, in the assay with IGROV1 ovarian, in the assay with UACC-257 melanoma, with SNB-19 CNS, with K-562 leukemia and in the assay with SF-295 CNS was more than 100 µM throughout. In the assay on HCT-15 colon, this molecule had a TGI of more than 100 µM.
